# Measurements taken from article PMC3215231, “Arcanolysin is a cholesterol-dependent cytolysin of the human pathogen Arcanobacterium haemolyticum” (BMC Microbiology, 2011).
# Molecular target: PFO (perfringolysin O), His-tagged PFO (Clostridium perfringens, UniProt P0C2E9)
# Assay type: biochemical
# Sequence of PFO (perfringolysin O), His-tagged PFO (P0C2E9 29-500 limits assumed): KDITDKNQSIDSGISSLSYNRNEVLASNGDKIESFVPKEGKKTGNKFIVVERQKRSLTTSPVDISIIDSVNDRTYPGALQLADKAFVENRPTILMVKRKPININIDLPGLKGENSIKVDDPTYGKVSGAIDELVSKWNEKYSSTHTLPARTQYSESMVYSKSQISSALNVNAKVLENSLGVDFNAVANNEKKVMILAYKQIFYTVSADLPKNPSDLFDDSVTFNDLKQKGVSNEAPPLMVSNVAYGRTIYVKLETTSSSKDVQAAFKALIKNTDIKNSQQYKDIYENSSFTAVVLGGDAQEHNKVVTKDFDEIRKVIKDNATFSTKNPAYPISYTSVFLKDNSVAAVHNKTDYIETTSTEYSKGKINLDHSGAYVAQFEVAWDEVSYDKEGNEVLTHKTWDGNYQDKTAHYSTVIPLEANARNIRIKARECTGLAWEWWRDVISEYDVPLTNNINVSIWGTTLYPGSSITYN
compound,measurement,value
CC(C)CCC[C@@H](C)[C@H]1CC[C@H]2[C@@H]3CC=C4C[C@@H](O)CC[C@]4(C)[C@H]3CC[C@]12C [cholesterol],% activity retained at 0.5 μM cholesterol,7.6%
